US9546401B2, “Assays and methods for selecting a treatment regimen for a subject with depression” (The General Hospital Corporation, priority 2011, dated 2017)
Where two headings read alike, the source gives them in different places.

Tested on: MDD patients carrying the indicated biomarkers
Experimental: Folate levels are classified as either low (<=2.5 ng/ml) or normal; and homocysteine levels as either normal or elevated (>=[…]). The presence or absence of at least one […] allele for the MTHFR gene are entered as a dichotomous variable (present or absent). […] Using folate as an example predicator, the presence or absence of a low serum-folate level along with treatment assignment can be entered in a 2×2, factorial ANOVA, using depression improvement scores (baseline minus endpoint HAM-D-17 scores) as the dependant variable. […] Similar analyses (i.e. separate 2×2 ANOVA's) can be performed substituting the presence of low folate levels for the presence of other predictors as described herein. Similarly, the effect of other predictors can be indicated by the interaction term representing the potential modulating influence of those variables.
The efficacy effect is determined by measuring the mean change in the HAMD-17 score and HAMD-28 score by the end of Phase I and Phase II, as compared to the baseline.

[1] = Phase I, BMI < 30 kg/m^2 and SAM/SAH >= median
[2] = Phase I, BMI >= 30 kg/m^2 and HNE-His >= median
[3] = Phase I, BMI*treat (interaction of BMI with the treatment)
[4] = Phase I, MTHFR 677 CC and BMI < 30 kg/m^2
[5] = Phase I, MTHFR 677 CT or TT and BMI >= 30 kg/m^2
[6] = Phase I, MTHFR 677 CT or TT and HNE-His >= median
[7] = Phase I, MTR 2756 AA and BMI < 30 kg/m^2
[8] = Phase I, MTR 2756 AA and HNE-His < median
[9] = Phase I, MTR 2756 AA and MTRR 66 AA
[10] = Phase I, MTR 2756 AA and MTRR 66 AA and SAM/SAH >= median
[11] = Phase I, MTR 2756 AA and SAM/SAH >= median
[12] = Phase I, MTR 2756 AG or GG and BMI >= 30 kg/m^2
[13] = Phase I, MTR 2756 AG or GG and MTRR 66 AG or GG
[14] = Phase I, MTR 2756 AG or GG and MTRR 66 AG or GG and HNE-His >= median
[15] = Phase I, MTRR 66 AA and SAM/SAH >= median
[16] = Phase I, MTRR 66 AG or GG and HNE-His >= median
[17] = Phase I, SAM/SAH < median and HNE-His >= median
[18] = Phase I, SAM/SAH >= median and HNE-His < median
[19] = Phase II, 25 =< BMI < 30 kg/m^2

## CN1c2c(nc(N)[nH]c2=O)NC[C@@H]1CNc1ccc(C(=O)N[C@@H](CCC(=O)O)C(=O)O)cc1 [6(S)-5-MTHF, 6(S)-5-methyltetrahydrofolate]
Phase I, BMI < 30 kg/m^2 and HNE-His < median
  Effect on change in HAMD-28 score: 4.606
[1]
  Effect on change in HAMD-17 score: 4.333
  Effect on change in HAMD-28 score: 4.333
Phase I, BMI >= 30 kg/m^2
  Effect on change in HAMD-17 score: −6.414
  Effect on change in HAMD-28 score: −6.677
[2]
  Effect on change in HAMD-17 score: −6.569
  Effect on change in HAMD-28 score: −6.510
Phase I, BMI >= 30 kg/m^2 and SAM/SAH < median
  Effect on change in HAMD-17 score: −5.611
Phase I, BMI >= 30 kg/m^2 and SAM/SAH < median = 2.71 (plasma)
  Effect on change in HAMD-28 score: −6.306
[3]
  Effect on change in HAMD-17 score: −0.567
  Effect on change in HAMD-28 score: −0.668
[4]
  Effect on change in HAMD-17 score: 4.500
  Effect on change in HAMD-28 score: 2.769
Phase I, MTHFR 677 CC and HNE-His < median
  Effect on change in HAMD-17 score: −1.471
Phase I, MTHFR 677 CC and HNE-His < median = 3.28 (plasma)
  Effect on change in HAMD-28 score: −2.821
[5]
  Effect on change in HAMD-17 score: −8.738
  Effect on change in HAMD-28 score: −9.857
[6]
  Effect on change in HAMD-17 score: −7.143
  Effect on change in HAMD-28 score: −6.929
Phase I, MTR 2756 AA
  Effect on change in HAMD-17 score: −0.621
  Effect on change in HAMD-28 score: 0.409
[7]
  Effect on change in HAMD-17 score: 4.476
  Effect on change in HAMD-28 score: 5.524
[8]
  Effect on change in HAMD-17 score: 0.306
  Effect on change in HAMD-28 score: 0.639
[9]
  Effect on change in HAMD-17 score: 3.125
  Effect on change in HAMD-28 score: 5.000
Phase I, MTR 2756 AA and MTRR 66 AA and HNE-His < median
  Effect on change in HAMD-17 score: 3.000
Phase I, MTR 2756 AA and MTRR 66 AA and HNE-His < median = 3.28 (plasma)
  Effect on change in HAMD-28 score: 4.200
[10]
  Effect on change in HAMD-17 score: −0.400
  Effect on change in HAMD-28 score: −1.000
[11]
  Effect on change in HAMD-17 score: −1.556
  Effect on change in HAMD-28 score: −1.278
[12]
  Effect on change in HAMD-17 score: −12.905
  Effect on change in HAMD-28 score: −18.762
Phase I, MTR 2756 AG or GG and HNE-His >= median
  Effect on change in HAMD-17 score: −7.125
Phase I, MTR 2756 AG or GG and HNE-His >= median = 3.28 (plasma)
  Effect on change in HAMD-28 score: −9.950
[13]
  Effect on change in HAMD-17 score: −6.900
  Effect on change in HAMD-28 score: −9.996
[14]
  Effect on change in HAMD-17 score: −7.200
  Effect on change in HAMD-28 score: −9.800
Phase I, MTR 2756 AG or GG and MTRR 66 AG or GG and SAM/SAH < median
  Effect on change in HAMD-17 score: −9.000
Phase I, MTR 2756 AG or GG and MTRR 66 AG or GG and SAM/SAH < median = 2.71 (plasma)
  Effect on change in HAMD-28 score: −12.741
Phase I, MTR 2756 AG or GG and SAM/SAH < median
  Effect on change in HAMD-17 score: −9.800
Phase I, MTR 2756 AG or GG and SAM/SAH < median = 2.71 (plasma)
  Effect on change in HAMD-28 score: −14.993
Phase I, MTR 2756 AG/GG
  Effect on change in HAMD-17 score: −7.143
  Effect on change in HAMD-28 score: −10.926
Phase I, MTRR 66 AA and HNE-His < median
  Effect on change in HAMD-17 score: −1.167
Phase I, MTRR 66 AA and HNE-His < median = 3.28 (plasma)
  Effect on change in HAMD-28 score: −4.167
[15]
  Effect on change in HAMD-17 score: −0.125
  Effect on change in HAMD-28 score: 0.500
[16]
  Effect on change in HAMD-17 score: −5.958
  Effect on change in HAMD-28 score: −6.975
Phase I, MTRR 66 AG or GG and SAM/SAH < median
  Effect on change in HAMD-17 score: −5.062
Phase I, MTRR 66 AG or GG and SAM/SAH < median = 2.71 (plasma)
  Effect on change in HAMD-28 score: −6.498
[17]
  Effect on change in HAMD-17 score: −3.670
  Effect on change in HAMD-28 score: −4.227
Phase I, SAM/SAH >= med
  Effect on change in HAMD-17 score: −0.946
Phase I, SAM/SAH >= med = 2.71 (plasma)
  Effect on change in HAMD-28 score: −1.148
[18]
  Effect on change in HAMD-17 score: −0.250
  Effect on change in HAMD-28 score: −0.750
Phase I, SAM/SAH*treat, first line under HAMD28
  Effect on change in HAMD-28 score: 0.495
Phase I, baseHAMD-17*treat (interaction of base HAMD-17 with the treatment)
  Effect on change in HAMD-17 score: 0.165
[19]
  Effect on change in HAMD-17 score: 2.000
  Effect on change in HAMD-28 score: 0.000
Phase II, BMI < 25
  Effect on change in HAMD-17 score: −1.400
